In patent US11952392B2, “Arginase inhibitors and methods of use thereof” (AstraZeneca AB, priority 2018, dated 2024):

Experiment: Gravity vapor sorption (GVS) analysis
Type: physicochemical
[1] = at relative humidity (RH) of 80%

RH after which the solid starts to deliquesce (GVS) | water absorbed (GVS) (at relative humidity (RH) of 70%) | water absorbed (GVS) [1] | SMILES
> 80 % RH | less than 2% |  | CC(C)[C@H](N)C(=O)N[C@H]1CN[C@]2(CCCCB(O)OC2=O)C1 [Example 1, (S)-2-amino-N-((3R,5R)-8-hydroxy-6-oxo-7-oxa-1-aza-8-boraspiro[4.7]dodecan-3-yl)-3-methylbutanamide]
 |  | less than 2% | CC(C)[C@@H]1NC(C)(C)N([C@H]2CN[C@]3(CCCCB(O)OC3=O)C2)C1=O [Example 2, (3R,5R)-8-hydroxy-3-((S)-4-isopropyl-2,2-dimethyl-5-oxoimidazolidin-1-yl)-7-oxa-1-aza-8-boraspiro[4.7]dodecan-6-one]
 |  | less than 2% | CC(C)[C@H](N)C(=O)N[C@H]1CN[C@]2(CCCCB(O)OC2=O)C1 [Example 3, (S)-2-amino-N-((3R,5R)-8-hydroxy-6-oxo-7-oxa-1-aza-8-boraspiro[4.7]dodecan-3-yl)-3-methylbutanamide]
